Source: patent publication US9000186B2, “Ring-fused heterocyclic derivative” (Kyowa Hakko Kirin Co., Ltd., priority 2011, dated 2015)
Like-named read-outs stand apart in the source and are kept apart here.

What was measured:
[1] = target: T1, human Cav3.2 T-type Ca2+ channel (Homo sapiens, UniProt O95180); assay: Inhibitory effect for intracellular calcium response via Cav3.2 T-type Ca2+ channels (FLIPR Calcium 3 Assay Kit); format: cell-based
T1 construct: expressed in transfected cells; host or cells: KJMGER8 cells (Namalwa cell-derived cell line)

[2] = test system: morphine-induced pruritus mice; assay: Inhibitory effect for pruritus in morphine-induced pruritus mice; format: in vivo, male ddY mice; details: oral, dose of 30 mg/kg or less, 30 minutes before intrathecal morphine (1 nmol/5 μL); scratching counted for 30 minutes
Experimental: Morphine (1 nmol/5 μL, dissolved in physiological saline) or physiological saline was intrathecally administered between the fifth and sixth lumbar vertebrae of male ddY mice using a microsyringe fitted with a 30-gauge injection needle. Mice administered with only morphine were used as a control group, and mice administered with only physiological saline as a physiological saline-administered group.
After the morphine administration, the number of scratching behavior with the hind legs which observed immediately in the mice was measured for 30 minutes. Because mice show a rapid, continuous scratching behavior in each scratching behavior, a series of such behavior was counted as a single scratching behavior.
The test compounds were administered 30 minutes before the morphine administration. Each test compound was suspended in a 0.5% methylcellulose solution, and orally administered in 10 mL/kg volume.

[3] = human Cav3.2-expressing KJMGER8 cells (Namalwa-derived), calcium response induced by 5 mmol/L CaCl2, normalised to 3 μmol/L mibefradil, read-out: IC50 for the human Cav3.2 T-type Ca2+ current

T1 sequence (O95180 whole entry): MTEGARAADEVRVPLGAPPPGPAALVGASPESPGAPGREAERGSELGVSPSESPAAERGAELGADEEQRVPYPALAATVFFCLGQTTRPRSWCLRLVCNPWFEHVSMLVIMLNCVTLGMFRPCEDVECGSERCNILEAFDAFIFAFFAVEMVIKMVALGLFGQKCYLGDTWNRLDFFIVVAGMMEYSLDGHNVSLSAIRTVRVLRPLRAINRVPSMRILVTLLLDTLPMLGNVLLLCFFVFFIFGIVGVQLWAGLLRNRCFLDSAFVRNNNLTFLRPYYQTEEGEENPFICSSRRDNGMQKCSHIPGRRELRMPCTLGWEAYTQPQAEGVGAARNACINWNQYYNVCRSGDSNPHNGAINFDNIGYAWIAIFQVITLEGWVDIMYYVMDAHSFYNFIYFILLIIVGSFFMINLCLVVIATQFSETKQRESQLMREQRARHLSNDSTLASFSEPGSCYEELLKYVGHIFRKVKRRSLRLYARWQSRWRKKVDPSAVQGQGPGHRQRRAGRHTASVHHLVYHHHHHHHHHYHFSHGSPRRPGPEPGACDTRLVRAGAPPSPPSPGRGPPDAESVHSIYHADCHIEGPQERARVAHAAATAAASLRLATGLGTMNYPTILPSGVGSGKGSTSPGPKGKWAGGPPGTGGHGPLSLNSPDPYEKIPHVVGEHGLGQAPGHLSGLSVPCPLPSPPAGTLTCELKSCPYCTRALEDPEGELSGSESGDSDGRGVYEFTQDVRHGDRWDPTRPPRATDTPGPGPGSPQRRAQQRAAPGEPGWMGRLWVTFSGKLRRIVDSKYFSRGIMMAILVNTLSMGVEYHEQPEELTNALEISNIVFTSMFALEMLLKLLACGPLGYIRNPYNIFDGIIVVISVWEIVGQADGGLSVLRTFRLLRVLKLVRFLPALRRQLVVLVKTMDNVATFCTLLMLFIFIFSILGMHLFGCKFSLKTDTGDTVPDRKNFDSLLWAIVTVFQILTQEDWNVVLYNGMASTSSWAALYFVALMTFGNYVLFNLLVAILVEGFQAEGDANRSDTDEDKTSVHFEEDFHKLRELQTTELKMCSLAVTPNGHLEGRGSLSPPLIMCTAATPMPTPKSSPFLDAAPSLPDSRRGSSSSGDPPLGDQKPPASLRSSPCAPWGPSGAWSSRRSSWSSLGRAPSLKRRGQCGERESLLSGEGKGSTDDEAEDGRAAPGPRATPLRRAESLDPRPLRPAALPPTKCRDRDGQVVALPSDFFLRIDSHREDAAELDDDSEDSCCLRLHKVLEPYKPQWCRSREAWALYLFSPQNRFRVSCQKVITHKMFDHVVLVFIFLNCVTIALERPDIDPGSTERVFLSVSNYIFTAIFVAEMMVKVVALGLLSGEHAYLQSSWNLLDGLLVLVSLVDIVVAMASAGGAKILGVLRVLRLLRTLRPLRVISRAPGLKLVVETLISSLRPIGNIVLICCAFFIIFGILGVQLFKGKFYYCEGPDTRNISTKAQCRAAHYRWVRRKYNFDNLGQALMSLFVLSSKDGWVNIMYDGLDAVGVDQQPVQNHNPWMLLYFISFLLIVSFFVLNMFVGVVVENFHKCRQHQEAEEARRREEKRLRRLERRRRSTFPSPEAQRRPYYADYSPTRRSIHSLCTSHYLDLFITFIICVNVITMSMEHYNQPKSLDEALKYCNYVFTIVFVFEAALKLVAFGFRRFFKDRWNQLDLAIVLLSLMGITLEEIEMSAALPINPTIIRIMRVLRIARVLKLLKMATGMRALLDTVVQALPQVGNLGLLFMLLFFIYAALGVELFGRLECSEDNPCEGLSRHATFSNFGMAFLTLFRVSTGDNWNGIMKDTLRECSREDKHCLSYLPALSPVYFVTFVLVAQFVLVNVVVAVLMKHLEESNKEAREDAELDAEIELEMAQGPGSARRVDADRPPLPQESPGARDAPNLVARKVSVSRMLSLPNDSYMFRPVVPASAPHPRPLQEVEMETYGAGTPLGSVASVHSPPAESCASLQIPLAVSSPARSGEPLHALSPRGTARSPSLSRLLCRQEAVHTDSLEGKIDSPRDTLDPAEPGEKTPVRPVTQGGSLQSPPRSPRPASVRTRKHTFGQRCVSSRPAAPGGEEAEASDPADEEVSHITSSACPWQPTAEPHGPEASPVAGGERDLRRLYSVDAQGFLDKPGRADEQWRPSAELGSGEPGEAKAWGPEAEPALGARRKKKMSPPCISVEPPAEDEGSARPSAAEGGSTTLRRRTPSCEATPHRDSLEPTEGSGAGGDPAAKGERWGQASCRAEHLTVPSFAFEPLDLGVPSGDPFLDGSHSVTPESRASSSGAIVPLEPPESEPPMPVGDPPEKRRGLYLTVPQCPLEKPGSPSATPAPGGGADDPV

| SMILES | IC50 [1] [nM] | increase of the scratching behavior observed in the morphine-induced pruritus mice [2] | IC50 [1, 3] [nM] |
| --- | --- | --- | --- |
| CC1CCCN(C(=O)c2ccn3c(CC4CCCCC4)c(C(C)(C)C)nc3c2)C1 (centres unmarked) [Compound 14, (2-tert-Butyl-3-cyclohexylmethylimidazo[1,2-a]pyridin-7-yl)(3-methylpiperidin-1-yl)methanone] | < 100 | inhibited | – |
| CC(C)(C)c1nc2cc(C(=O)NC3CCC3)ccn2c1CC1CCCCC1 [Compound 15, 2-tert-Butyl-N-cyclobutyl-3-cyclohexylmethylimidazo[1,2-a]pyridine-7-carboxamide] | < 100 | inhibited | – |
| CC(C)c1nc2cc(C(=O)Nc3ccccc3)ccn2c1COC1CCCCC1 [Compound 21, 3-Cyclohexyloxymethyl-2-isopropyl-N-phenylimidazo[1,2-a]pyridine-7-carboxamide] | – | inhibited | < 100 |
| CC(C)c1nc2cc(C(=O)Nc3ccncc3)ccn2c1COC1CCCCC1 [Compound 24, 3-Cyclohexyloxymethyl-2-isopropyl-N-(pyridin-4-yl)imidazo[1,2-a]pyridine-7-carboxamide] | – | inhibited | < 100 |
| CC(C)(C)c1nc2cc(C(=O)Nc3ccncc3)ccn2c1CC1CCC(F)(F)CC1 [Compound 34, 2-tert-Butyl-3-(4,4-difluorocyclohexylmethyl)-N-(pyridin-4-yl)imidazo[1,2-a]pyridine-7-carboxamide] | < 100 | inhibited | – |
| O=C(Nc1ccncc1)c1ccn2c(CC3CCCCC3)c(C(F)(F)F)nc2c1 [Compound 35, 3-Cyclohexylmethyl-N-(pyridin-4-yl)-2-trifluoromethylimidazo[1,2-a]pyridine-7-carboxamide] | < 100 | inhibited | – |
| O=C(Nc1ccncc1)c1ccn2c(CC3CCC(F)(F)CC3)c(C(F)(F)F)nc2c1 [Compound 36, 3-(4,4-Difluorocyclohexylmethyl)-N-(pyridin-4-yl)-2-trifluoromethylimidazo[1,2-a]pyridine-7-carboxamide] | – | inhibited | – |
| CC(C)c1nc2cc(C(=O)Nc3ccncc3)ccn2c1S(=O)(=O)C1CCCCC1 [Compound 38, 3-Cyclohexylsulfonyl-2-isopropyl-N-(pyridin-4-yl)imidazo[1,2-a]pyridine-7-carboxamide] | < 100 | inhibited | – |
| CC(C)c1nc2cc(C(=O)Nc3ccccc3)ccn2c1S(=O)(=O)C1CCCCC1 [Compound 41, 3-Cyclohexylsulfonyl-2-isopropyl-N-phenylimidazo[1,2-a]pyridine-7-carboxamide] | < 100 | inhibited | – |
| Cc1cn2c(COC3CCCCC3)c(C(C)C)nc2cc1C(=O)Nc1ccncc1 [Compound 43, 3-Cyclohexyloxymethyl-2-isopropyl-6-methyl-N-(pyridin-4-yl)imidazo[1,2-a]pyridine-7-carboxamide] | < 100 | inhibited | – |
| Cc1cc(C(=O)NC2CCOCC2)cc2nc(C(F)(F)F)c(CC3CCC(F)(F)CC3)n12 [Compound 44, 3-(4,4-Difluorocyclohexylmethyl)-5-methyl-N-(tetrahydro-2H-pyran-4-yl)-2-trifluoromethylimidazo[1,2-a]pyridine-7-carboxamide] | – | inhibited | – |
| O=C(NC1CCC1)c1ccn2c(CC3CCC(F)(F)CC3)c(C(F)(F)F)nc2c1 [Compound 50, N-Cyclobutyl-3-(4,4-difluorocyclohexylmethyl)-2-trifluoromethylimidazo[1,2-a]pyridine-7-carboxamide] | < 100 | inhibited | – |
| O=C(NC1CC(F)(F)C1)c1ccn2c(CC3CCC(F)(F)CC3)c(C(F)(F)F)nc2c1 [Compound 51, N-(3,3-Difluorocyclobutyl)-3-(4,4-difluorocyclohexylmethyl)-2-trifluoromethylimidazo[1,2-a]pyridine-7-carboxamide] | < 100 | inhibited | – |
| CC1(NC(=O)c2ccn3c(CC4CCC(F)(F)CC4)c(C(F)(F)F)nc3c2)CCOCC1 [Compound 52, 3-(4,4-Difluorocyclohexylmethyl)-N-(4-methyltetrahydro-2H-pyran-4-yl)-2-trifluoromethylimidazo[1,2-a]pyridine-7-carboxamide] | < 100 | inhibited | – |
| CC1(C)CC(NC(=O)c2ccn3c(CC4CCC(F)(F)CC4)c(C(F)(F)F)nc3c2)CCO1 (centres unmarked) [Compound 54, 3-(4,4-Difluorocyclohexylmethyl)-N-(2,2-dimethyltetrahydro-2H-pyran-4-yl)-2-trifluoromethylimidazo[1,2-a]pyridine-7-carboxamide] | – | inhibited | – |
| Cc1cc(C(=O)NC2CCC(O)CC2)cc2nc(C(F)(F)F)c(CC3CCC(F)(F)CC3)n12 (centres unmarked) [Compound 70, 3-(4,4-Difluorocyclohexylmethyl)-N-(4-hydroxycyclohexyl)-5-methyl-2-trifluoromethylimidazo[1,2-a]pyridine-7-carboxamide] | < 100 | inhibited | – |
| Cc1cc(C(=O)NC2CCC(F)(F)CC2)cc2nc(C(F)(F)F)c(CC3CCC(F)(F)CC3)n12 [Compound 72, N-(4,4-Difluorocyclohexyl)-3-(4,4-difluorocyclohexylmethyl)-5-methyl-2-trifluoromethylimidazo[1,2-a]pyridine-7-carboxamide] | < 100 | inhibited | – |
| Cc1cc(C(=O)NC2CCOC2)cc2nc(C(F)(F)F)c(CC3CCC(F)(F)CC3)n12 (centres unmarked) [Compound 73, 3-(4,4-Difluorocyclohexylmethyl)-5-methyl-N-(tetrahydrofuran-3-yl)-2-trifluoromethylimidazo[1,2-a]pyridine-7-carboxamide] | < 100 | inhibited | – |
| Cc1cc(C(=O)NC2CCOC(C)(C)C2)cc2nc(C(F)(F)F)c(CC3CCC(F)(F)CC3)n12 (centres unmarked) [Compound 75, 3-(4,4-Difluorocyclohexylmethyl)-N-(2,2-dimethyltetrahydro-2H-pyran-4-yl)-5-methyl-2-trifluoromethylimidazo[1,2-a]pyridine-7-carboxamide] | – | inhibited | < 100 |
| Cc1cc(C(=O)NC2CCCOC2)cc2nc(C(F)(F)F)c(CC3CCC(F)(F)CC3)n12 (centres unmarked) [Compound 76, 3-(4,4-Difluorocyclohexylmethyl)-5-methyl-N-(tetrahydro-2H-pyran-3-yl)-2-trifluoromethylimidazo[1,2-a]pyridine-7-carboxamide] | – | inhibited | < 100 |
| Cc1cc(C(=O)NCC(C)(C)O)cc2nc(C(F)(F)F)c(CC3CCC(F)(F)CC3)n12 [Compound 78, 3-(4,4-Difluorocyclohexylmethyl)-N-(2-hydroxy-2-methylpropyl)-5-methyl-2-trifluoromethylimidazo[1,2-a]pyridine-7-carboxamide] | < 100 | inhibited | – |
| COC(C)(C)CNC(=O)c1cc(C)n2c(CC3CCC(F)(F)CC3)c(C(F)(F)F)nc2c1 [Compound 79, 3-(4,4-Difluorocyclohexylmethyl)-N-(2-methoxy-2-methylpropyl)-5-methyl-2-trifluoromethylimidazo[1,2-a]pyridine-7-carboxamide] | < 100 | inhibited | – |
| Cc1cc(C(=O)NCC2CCOC2)cc2nc(C(F)(F)F)c(CC3CCC(F)(F)CC3)n12 (centres unmarked) [Compound 80, 3-(4,4-Difluorocyclohexylmethyl)-N-{(tetrahydrofuran-3-yl)methyl}-5-methyl-2-trifluoromethylimidazo[1,2-a]pyridine-7-carboxamide] | < 100 | inhibited | – |
| Cc1cn2c(CC3CCC(F)(F)CC3)c(C(F)(F)F)nc2cc1C(=O)NC1CCOCC1 [Compound 118, 3-(4,4-Difluorocyclohexylmethyl)-6-methyl-N-(tetrahydro-2H-pyran-4-yl)-2-trifluoromethylimidazo[1,2-a]pyridine-7-carboxamide] | – | inhibited | – |
| C#CC(C)(C)NS(=O)(=O)c1c(C(C)C)nc2cc(C(=O)Nc3ccccc3)c(Cl)cn12 [Compound 179, 6-Chloro-2-isopropyl-3-{N-(2-methylbut-3-yne-2-yl)sulfamoyl}-N-phenylimidazo[1,2-a]pyridine-7-carboxamide] | – | – | < 100 |
| O=C(NC1CC=CCC1)c1ccn2c(CC3CCC(F)(F)CC3)c(C(F)(F)F)nc2c1 (centres unmarked) [Compound 180, N-(Cyclohex-3-enyl)-3-(4,4-difluorocyclohexylmethyl)-2-trifluoromethylimidazo[1,2-a]pyridine-7-carboxamide] | < 100 | – | – |
| O=C(NOC1CCOCC1)c1cc2nc(C(F)(F)F)c(CC3CCC(F)(F)CC3)n2cc1Cl [Compound 181, 6-Chloro-3-(4,4-difluorocyclohexylmethyl)-N-(tetrahydro-2H-pyran-4-yloxy)-2-trifluoromethylimidazo[1,2-a]pyridine-7-carboxamide] | – | – | < 100 |
